Bounds are passed on as bounds.

The test deals with IL-2 secretion by Jurkat T cells. In words: Inhibition of IL-2 secretion. Conditions: Homo sapiens; Jurkat T cells stimulated with PHA, 20 to 24 hours, IL-2 by ELISA. It is filed as cell-based. Here is the method:
The CRAC channel modulatory activity of the compounds were thus evaluated by measuring the secretion of IL-2 by antigen stimulated T-cells in vitro. Alternatively, such activity can also be evaluated by assay methods known to one skilled in the art.
Inhibition of IL-2 secretion: Jurkat T cells were seeded at a density of 0.5 to 1 million cells per well in RPMI medium. Test compounds from this invention were added to the cells at different concentrations. This was followed by the addition of PHA, a T cell mitogen after 10 minutes. The cells were then incubated for 20 to 24 hours in a CO2 incubator at 37° C. After incubation with the compounds, cells were centrifuged, the supernatant was collected and processed for ELISA to quantitate the amount of IL-2 secreted. A commercial ELISA kit (R&D Systems, Inc. Minneapolis, Minn., USA) was used to estimate the IL-2 concentrations. Amount of IL-2 secreted by cells stimulated with PHA was considered as a 100% maximal signal and the decrease in amount of IL-2 secreted by cells treated with the test compounds was expressed as percent inhibition of the maximal signal. The dose response data was analyzed using 4-parametric sigmoidal dose response (variable slope) curve—fit.
As a reminder, the IC50 is the concentration needed to halve the response being measured. A high value points to lower potency. Regarding `Cc1ncc(-c2nn(C)c(=O)o2)cc1-c1ccc(NC(=O)c2c(F)cccc2F)cc1` [Example 1, 2,6-Difluoro-N-(4-(2-methyl-5-(4-methyl-5-oxo-4,5-dihydro-1,3,4-oxadiazol-2-yl)pyridin-3-yl)phenyl)benzamide], the half-inhibitory concentration (IC50) lay within 100 to 1000 nM.
`CCc1ncc(-c2nn(C)c(=O)o2)cc1-c1ccc(NC(=O)c2c(F)cccc2F)cc1` [Example 2, N-(4-(2-ethyl-5-(4-methyl-5-oxo-4,5-dihydro-1,3,4-oxadiazol-2-yl)pyridin-3-yl)phenyl)-2,6-difluorobenzamide] registered an IC50 of less than 100 nM.
`CCc1ncc(-c2nn(C)c(=O)o2)cc1-c1ccc(C(=O)Nc2c(F)cccc2F)cc1` [Example 3, N-(2,6-Difluorophenyl)-4-(2-ethyl-5-(4-methyl-5-oxo-4,5-dihydro-1,3,4-oxadiazol-2-yl)pyridin-3-yl)benzamide] yielded an IC50 of 100 to 1000 nM.
In turn, `Cn1nc(-c2cnc(C3CC3)c(-c3ccc(NC(=O)c4c(F)cccc4F)cc3)c2)oc1=O` [Example 4, N-(4-(2-Cyclopropyl-5-(4-methyl-5-oxo-4,5-dihydro-1,3,4-oxadiazol-2-yl)pyridin-3-yl)phenyl)-2,6-difluorobenzamide] came in with an IC50 of less than 100 nM.
The compound `Cn1nc(-c2cnc(C3CC3)c(-c3ccc(C(=O)Nc4c(F)cccc4F)cc3)c2)oc1=O` [Example 5, 4-(2-cyclopropyl-5-(4-methyl-5-oxo-4,5-dihydro-1,3,4-oxadiazol-2-yl)pyridin-3-yl)-N-(2,6-difluorophenyl)benzamide] displayed an IC50 of 100 to 1000 nM.
On to `COc1ncc(-c2nn(C)c(=O)o2)cc1-c1ccc(NC(=O)c2c(F)cccc2F)cc1` [Example 6, 2,6-Difluoro-N-(4-(2-methoxy-5-(4-methyl-5-oxo-4,5-dihydro-1,3,4-oxadiazol-2-yl)pyridin-3-yl)phenyl)benzamide], for which the IC50 was less than 100 nM.
With `Cn1nc(-c2cnc(C(F)(F)F)c(-c3ccc(NC(=O)c4c(F)cccc4F)cc3)c2)oc1=O` [Example 7, 2,6-difluoro-N-(4-(5-(4-methyl-5-oxo-4,5-dihydro-1,3,4-oxadiazol-2-yl)-2-(trifluoromethyl)pyridin-3-yl)phenyl)benzamide] the figure was less than 100 nM; with `Cc1cc(NC(=O)c2c(F)cccc2F)ccc1-c1cc(-c2nn(C)c(=O)o2)cnc1C(F)(F)F` [Example 8, 2,6-difluoro-N-(3-methyl-4-(5-(4-methyl-5-oxo-4,5-dihydro-1,3,4-oxadiazol-2-yl)-2-(trifluoromethyl)pyridin-3-yl)phenyl)benzamide], 100 to 1000 nM; with `Cn1nc(-c2cnc(C(F)(F)F)c(-c3ccc(NC(=O)c4c(F)cccc4Cl)cc3)c2)oc1=O` [Example 9, 2-Chloro-6-fluoro-N-(4-(5-(4-methyl-5-oxo-4,5-dihydro-1,3,4-oxadiazol-2-yl)-2-(trifluoromethyl)pyridin-n-3-yl)phenyl)benzamide], 100 to 1000 nM.
`CNc1ncc(-c2nn(C)c(=O)o2)cc1-c1ccc(NC(=O)c2c(F)cccc2F)cc1` [Example 10, 2,6-Difluoro-N-(4-(5-(4-methyl-5-oxo-4,5-dihydro-1,3,4-oxadiazol-2-yl)-2-(methylamino)pyridin-3-yl)phenyl)benzamide] returned an IC50 of less than 100 nM.
The value for `CNc1ncc(-c2nn(C)c(=O)o2)cc1-c1ccc(NC(=O)c2c(F)cccc2Cl)cc1` [Example 11, 2-Chloro-6-fluoro-N-(4-(5-(4-methyl-5-oxo-4,5-dihydro-1,3,4-oxadiazol-2-yl)-2-(methylamino)pyridin-3-yl)phenyl)benzamide] was less than 100 nM; that for `CNc1ncc(-c2nn(C)c(=O)o2)cc1-c1ccc(NC(=O)c2c(C)cccc2F)cc1` [Example 12, 2-Fluoro-6-methyl-N-(4-(5-(4-methyl-5-oxo-4,5-dihydro-1,3,4-oxadiazol-2-yl)-2-(methylamino)pyridin-3-yl)phenyl)benzamide] was less than 100 nM.
`CNc1ncc(-c2nn(C)c(=O)o2)cc1-c1ccc(NC(=O)c2c(F)cccc2F)cc1C` [Example 13, 2,6-Difluoro-N-(3-methyl-4-(5-(4-methyl-5-oxo-4,5-dihydro-1,3,4-oxadiazol-2-yl)-2-(methylamino)pyridin-3-yl)phenyl)benzamide] registered an IC50 of 100 to 1000 nM.
The value for `Cn1nc(-c2cncc(-c3ccc(NC(=O)c4c(F)cccc4F)cc3)c2)oc1=O` [Example 14, 2,6-Difluoro-N-(4-(5-(4-methyl-5-oxo-4,5-dihydro-1,3,4-oxadiazol-2-yl)pyridin-3-yl)phenyl)benzamide] was greater than 1000 nM; that for `Cc1cc(NC(=O)c2c(F)cccc2F)ccc1-c1cncc(-c2nn(C)c(=O)o2)c1` [Example 15, 2,6-Difluoro-N-(3-methyl-4-(5-(4-methyl-5-oxo-4,5-dihydro-1,3,4-oxadiazol-2-yl)pyridin-3-yl)phenyl)benzamide] was less than 100 nM; that for `CCc1c(-c2ccc(NC(=O)c3c(F)cccc3F)cc2)cncc1-c1nn(C)c(=O)o1` [Example 16, N-(4-(4-Ethyl-5-(4-methyl-5-oxo-4,5-dihydro-1,3,4-oxadiazol-2-yl)pyridin-3-yl)phenyl)-2,6-difluorobenzamide] was 100 to 1000 nM.
In turn, `CCc1c(-c2ccc(C(=O)Nc3c(F)cccc3F)cc2)cncc1-c1nn(C)c(=O)o1` [Example 17, N-(2,6-Difluorophenyl)-4-(4-ethyl-5-(4-methyl-5-oxo-4,5-dihydro-1,3,4-oxadiazol-2-yl)pyridin-3-yl)benzamide] came in with an IC50 greater than 1000 nM.
On to `CCc1c(-c2nn(C)c(=O)o2)ccnc1-c1ccc(NC(=O)c2c(F)cccc2F)cc1` [Example 18, N-(4-(3-Ethyl-4-(4-methyl-5-oxo-4,5-dihydro-1,3,4-oxadiazol-2-yl)pyridin-2-yl)phenyl)-2,6-difluorobenzamide], for which the IC50 is greater than 1000 nM.
The value for `CCc1c(-c2nn(C)c(=O)o2)ccnc1-c1ccc(C(=O)Nc2c(F)cccc2F)cc1` [Example 19, N-(2,6-Difluorophenyl)-4-(3-ethyl-4-(4-methyl-5-oxo-4,5-dihydro-1,3,4-oxadiazol-2-yl)pyridin-2-yl)benzamide] was greater than 1000 nM.
As for `Cc1c(-c2nn(C)c(=O)o2)ccnc1-c1ccc(NC(=O)c2c(F)cccc2F)cc1` [Example 20, 2,6-Difluoro-N-(4-(3-methyl-4-(4-methyl-5-oxo-4,5-dihydro-1,3,4-oxadiazol-2-yl)pyridin-2-yl)phenyl)benzamide], the IC50 was greater than 1000 nM.
In the case of `CCc1cnc(-c2ccc(NC(=O)c3c(F)cccc3F)cc2)cc1-c1nn(C)c(=O)o1` [Example 21, N-(4-(5-Ethyl-4-(4-methyl-5-oxo-4,5-dihydro-1,3,4-oxadiazol-2-yl)pyridin-2-yl)phenyl)-2,6-difluorobenzamide], the IC50 was greater than 1000 nM.
`CCc1cnc(-c2ccc(C(=O)Nc3c(F)cccc3F)cc2)cc1-c1nn(C)c(=O)o1` [Example 22, N-(2,6-Difluorophenyl)-4-(5-ethyl-4-(4-methyl-5-oxo-4,5-dihydro-1,3,4-oxadiazol-2-yl)pyridin-2-yl)benzamide] registered an IC50 greater than 1000 nM.
The value for `Cc1cc(-c2nn(C)c(=O)o2)cc(-c2ccc(NC(=O)c3c(F)cccc3F)cc2)n1` [Example 23, 2,6-Difluoro-N-(4-(6-methyl-4-(4-methyl-5-oxo-4,5-dihydro-1,3,4-oxadiazol-2-yl)pyridin-2-yl)phenyl)benzamide] was greater than 1000 nM.
In turn, `Cn1nc(-c2cc(Cl)cc(-c3ccc(NC(=O)c4c(F)cccc4F)cc3)n2)oc1=O` [Example 24, N-(4-(4-Chloro-6-(4-methyl-5-oxo-4,5-dihydro-1,3,4-oxadiazol-2-yl)pyridin-2-yl)phenyl)-2,6-difluorobenzamide] gave a half-maximal inhibitory concentration (IC50) greater than 1000 nM.
The value for `CCOc1cc(-c2ccc(NC(=O)c3c(F)cccc3F)cc2)nc(-c2nn(C)c(=O)o2)c1` [Example 25, N-(4-(4-Ethoxy-6-(4-methyl-5-oxo-4,5-dihydro-1,3,4-oxadiazol-2-yl)pyridin-2-yl)phenyl)-2,6-difluorobenzamide] was greater than 1000 nM; that for `Cn1nc(-c2cc(-c3ccc(NC(=O)c4c(F)cccc4F)cc3)ccn2)oc1=O` [Example 26, 2,6-Difluoro-N-(4-(2-(4-methyl-5-oxo-4,5-dihydro-1,3,4-oxadiazol-2-yl)pyridin-4-yl)phenyl)benzamide] was greater than 1000 nM; that for `Cc1cc(-c2nn(C)c(=O)o2)ncc1-c1ccc(NC(=O)c2c(F)cccc2F)cc1` [Example 27, 2,6-Difluoro-N-(4-(4-methyl-6-(4-methyl-5-oxo-4,5-dihydro-1,3,4-oxadiazol-2-yl)pyridin-3-yl)phenyl)benzamide] was 100 to 1000 nM.
In the case of `Cc1nnsc1C(=O)Nc1ccc(-c2cc(-c3nn(C)c(=O)o3)cnc2C2CC2)cc1` [Example 28, N-(4-(2-Cyclopropyl-5-(4-methyl-5-oxo-4,5-dihydro-1,3,4-oxadiazol-2-yl)pyridin-3-yl)phenyl)-4-methyl-1,2,3-thiadiazole-5-carboxamide], the IC50 lay in the range of 100 to 1000 nM.
Compound `CCc1ncc(-c2nn(C)c(=O)o2)cc1-c1ccc(NC(=O)c2c(F)cccc2F)cc1C` [Example 29, N-(4-(2-Ethyl-5-(4-methyl-5-oxo-4,5-dihydro-1,3,4-oxadiazol-2-yl)pyridin-3-yl)-3-methylphenyl)-2,6-difluorobenzamide] returned an IC50 of less than 100 nM.
The compound `CCc1ncc(-c2nn(C)c(=O)o2)cc1-c1ccc(NC(=O)c2c(F)cccc2F)nc1` [Example 30, N-(2′-ethyl-5′-(4-methyl-5-oxo-4,5-dihydro-1,3,4-oxadiazol-2-yl)-[3,3′-bipyridin]-6-yl)-2,6-difluorobenzamide] returned an IC50 of less than 100 nM.

Values taken from patent US9399638B2, “Substituted pyridine compounds as CRAC modulators” (LUPIN LIMITED, priority 2012, dated 2016).
